Assay results reported in patent publication US10168342B2, “Lipid probes and uses thereof” (THE SCRIPPS RESEARCH INSTITUTE, priority 2015, dated 2019).

Legend:
Test in all cases: In situ competitive SILAC profiling with A-DA probe in (PMA-stimulated) A549 cells
Conditions in all cases: A549 cells, A-DA probe
[1] = biological target: T1, A-DA lipid probe targets in A549 cells (Homo sapiens, UniProt Q6P1A2)
T1 sequence (Q6P1A2 1-487): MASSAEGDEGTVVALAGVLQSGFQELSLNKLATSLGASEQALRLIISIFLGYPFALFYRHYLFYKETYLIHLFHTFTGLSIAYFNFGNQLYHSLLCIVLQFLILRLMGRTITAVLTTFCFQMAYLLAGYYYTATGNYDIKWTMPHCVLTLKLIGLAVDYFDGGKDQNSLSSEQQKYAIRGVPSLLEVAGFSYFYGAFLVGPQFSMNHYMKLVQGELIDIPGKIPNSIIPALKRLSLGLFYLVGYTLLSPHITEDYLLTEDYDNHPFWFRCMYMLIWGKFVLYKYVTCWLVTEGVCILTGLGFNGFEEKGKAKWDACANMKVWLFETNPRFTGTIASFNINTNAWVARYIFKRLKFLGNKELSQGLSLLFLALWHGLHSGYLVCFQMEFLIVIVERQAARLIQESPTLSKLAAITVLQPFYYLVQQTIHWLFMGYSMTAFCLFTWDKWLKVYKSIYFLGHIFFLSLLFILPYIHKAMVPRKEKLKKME

[2] = biological target: A-DA lipid probe targets in A549 cells (Homo sapiens, UniProt Q9Y639)
Sequence of A-DA lipid probe targets in A549 cells (Homo sapiens, UniProt Q9Y639) (Q9Y639 29-398): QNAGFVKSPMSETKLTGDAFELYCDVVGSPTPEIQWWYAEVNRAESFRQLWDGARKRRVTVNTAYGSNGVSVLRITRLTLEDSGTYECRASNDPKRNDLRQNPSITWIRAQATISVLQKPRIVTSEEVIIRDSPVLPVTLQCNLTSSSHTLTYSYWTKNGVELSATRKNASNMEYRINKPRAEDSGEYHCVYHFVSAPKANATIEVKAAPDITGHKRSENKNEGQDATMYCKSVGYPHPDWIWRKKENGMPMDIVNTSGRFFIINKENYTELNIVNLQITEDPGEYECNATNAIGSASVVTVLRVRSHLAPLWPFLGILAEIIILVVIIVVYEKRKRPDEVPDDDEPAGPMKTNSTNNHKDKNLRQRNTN

[3] = biological target: T2, A-DA lipid probe targets in A549 cells (Homo sapiens, UniProt P35354)
T2 sequence (P35354 18-604): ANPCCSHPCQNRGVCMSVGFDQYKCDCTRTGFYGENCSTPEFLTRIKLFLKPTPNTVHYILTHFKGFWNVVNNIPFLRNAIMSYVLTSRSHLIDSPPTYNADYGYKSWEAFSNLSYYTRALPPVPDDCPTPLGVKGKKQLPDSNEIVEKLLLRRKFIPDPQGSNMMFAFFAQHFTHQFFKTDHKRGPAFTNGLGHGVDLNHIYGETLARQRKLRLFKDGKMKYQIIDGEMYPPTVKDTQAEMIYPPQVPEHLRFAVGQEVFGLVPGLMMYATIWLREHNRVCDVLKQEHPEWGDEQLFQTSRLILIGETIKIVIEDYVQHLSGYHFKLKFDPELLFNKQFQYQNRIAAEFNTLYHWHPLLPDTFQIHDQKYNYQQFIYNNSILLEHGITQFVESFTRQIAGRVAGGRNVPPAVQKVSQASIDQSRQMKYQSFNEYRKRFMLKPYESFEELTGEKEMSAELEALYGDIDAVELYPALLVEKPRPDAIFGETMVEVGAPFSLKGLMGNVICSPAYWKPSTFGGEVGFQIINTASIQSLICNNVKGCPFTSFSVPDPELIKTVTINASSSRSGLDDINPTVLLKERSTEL

[4] = biological target: T3, A-DA lipid probe targets in A549 cells (Homo sapiens, UniProt Q53GQ0)
T3 sequence (Q53GQ0 1-312): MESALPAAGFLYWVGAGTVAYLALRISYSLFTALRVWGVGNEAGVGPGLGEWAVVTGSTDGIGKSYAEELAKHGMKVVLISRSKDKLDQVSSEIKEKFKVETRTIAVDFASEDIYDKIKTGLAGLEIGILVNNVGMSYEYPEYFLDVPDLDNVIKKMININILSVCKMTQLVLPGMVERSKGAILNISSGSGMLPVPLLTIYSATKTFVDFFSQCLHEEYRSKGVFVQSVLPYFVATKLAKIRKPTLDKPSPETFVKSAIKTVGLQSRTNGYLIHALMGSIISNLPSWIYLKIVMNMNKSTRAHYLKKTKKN

[5] = biological target: T4, A-DA lipid probe targets in A549 cells (Homo sapiens, UniProt P45880)
T4 sequence (P45880 1-294): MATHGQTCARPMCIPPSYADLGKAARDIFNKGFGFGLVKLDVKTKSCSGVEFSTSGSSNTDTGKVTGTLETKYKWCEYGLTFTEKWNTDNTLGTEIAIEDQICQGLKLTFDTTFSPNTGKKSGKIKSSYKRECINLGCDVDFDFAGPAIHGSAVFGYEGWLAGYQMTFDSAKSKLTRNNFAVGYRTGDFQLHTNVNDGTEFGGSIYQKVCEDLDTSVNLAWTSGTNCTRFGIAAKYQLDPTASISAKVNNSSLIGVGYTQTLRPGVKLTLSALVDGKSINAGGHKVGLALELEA

Compound	SILAC ratio, LPCAT3 (Q6P1A2) ([1]; competitor 25 μM)	SILAC ratio, NPTN (Q9Y639) ([2]; competitor 25 μM)	SILAC ratio, PTGS2 (P35354) ([3]; competitor 25 μM)	SILAC ratio, HSD17B12 (Q53GQ0) ([4]; competitor 25 μM)	SILAC ratio, VDAC2 (P45880) ([5]; competitor 25 μM)	SILAC ratio, LPCAT3 (Q6P1A2) ([1]; competitor 5 μM)	SILAC ratio, LPCAT3 (Q6P1A2) ([1]; competitor 50 μM)	SILAC ratio, NPTN (Q9Y639) ([2]; competitor 5 μM)	SILAC ratio, NPTN (Q9Y639) ([2]; competitor 50 μM)	SILAC ratio, PTGS2 (P35354) ([3]; competitor 5 μM)	SILAC ratio, PTGS2 (P35354) ([3]; competitor 50 μM)	SILAC ratio, HSD17B12 (Q53GQ0) ([4]; competitor 5 μM)	SILAC ratio, HSD17B12 (Q53GQ0) ([4]; competitor 50 μM)	SILAC ratio, VDAC2 (P45880) ([5]; competitor 5 μM)	SILAC ratio, VDAC2 (P45880) ([5]; competitor 50 μM)
O=C(/C=C/c1cccnc1)NCCCCC1CCN(C(=O)c2ccccc2)CC1 [FK-866, reference compound]	3.3	1.4	1.9	1.4	1.2	–	–	–	–	–	–	–	–	–	–
C=CCN(C)CCCCCCOc1ccc(C(=O)c2ccc(Br)cc2)c(F)c1 [Ro488071]	–	–	–	–	–	1.3	2.7	1.3	3.0	2.5	3.3	1.4	3.0	1.5	3.4
